Results as given in patent US20030166721A1, “Choline derivative for the treatment of alzheimer's disease” (priority 2000, published 2003).

Columns and labels:
Wistar rats [1] = assay: EEG spectral qualitative and quantitative analysis in freely moving rats after i.p. administration; assay type: in vivo, rat; conditions: for EEG frequency band 0.25-3 Hz / EEG frequency band 3-6 Hz / EEG frequency band 6-9 Hz / EEG frequency band 9-12 Hz / EEG frequency band 12-16 Hz: after i.p. administration, % ± SEM; for Effect of atropine given 15 min before the compound: atropine pretreatment; for EEG total power (fronto-parietal cortex), Baseline: before i.p. injection (vol. 0.5 ml); for EEG total power (fronto-parietal cortex), Baseline / EEG total power (fronto-parietal cortex), 15′ / EEG total power (fronto-parietal cortex), 30′ / EEG total power (fronto-parietal cortex), 45′ / EEG total power (fronto-parietal cortex), 60′ / EEG total power (fronto-parietal cortex), 75′ / EEG total power (fronto-parietal cortex), 90′: mean ± SEM, 7 tests; for EEG total power (fronto-parietal cortex), 15′ / EEG total power (fronto-parietal cortex), 30′ / EEG total power (fronto-parietal cortex), 45′ / EEG total power (fronto-parietal cortex), 60′ / EEG total power (fronto-parietal cortex), 75′ / EEG total power (fronto-parietal cortex), 90′: i.p. (vol. 0.5 ml)
Experimental: Young male Wistar rats (200-260) were used in the experiments, housed in a standard temperature and humidity conditions, with food and water ad libitum. […] After surgery all animals were housed 48 h to allow a complete recovery. 48 Hours after electrode implantation, the animals, placed in a transparent box and freely moving, were connected with an electroencephalograph and the electrocortical activity was continuously monitored and recorded. […] Qualitative and quantitative analysis on the electrocortical activity EEG recording was subsequently carried out. The animals were divided in 4 groups, the first group acted as the control, the second received cytidine-5′-diphosphocholine (CDP-choline), the third and fourth received PC-1 and PC-2, respectively (pivaloylcholine iodide and pivaloyleholine trimethylacetate, respectively). The control group received an equal volume of saline solution by the same procedure. […] Statistical analysis was performed by analysis of variance (ANOVA) for multiple measurements followed, if significant, by the post-hoc Tuckey-Kramer test. A comparison between groups was performed to exclude any individual variability.

Wistar rats [2] = assay: Behavioural and EEG effects in rats at different doses; assay type: in vivo, rat
Experimental: Young male Wistar rats (200-260) were used in the experiments, housed in a standard temperature and humidity conditions, with food and water ad libitum.
The animals, anaesthetised with chloral hydrate (400 mg/kg) […], were stereotaxically implanted (Kopft Instruments) with cortical electrodes (n=4) onto the fronto-parietal region of the neocortex on both cerebral hemispheres, to record EEG. After surgery all animals were housed 48 h to allow a complete recovery.
48 Hours after electrode implantation, the animals, placed in a transparent box and freely moving, were connected with an electroencephalograph and the electrocortical activity was continuously monitored and recorded. After a 30 min control time, the compounds under test were intraperitoneally administered and EEG recording was continued for 90-120 min
EEG was recorded by computerised 24-channels apparatus (Vega 24, Galileo type, ESA-OTE Biomedica, Florence, Italy), while the spectrum activity was quantitatively analysed by a Berg Fourier analyser (ESA-OTE Biomedica, Florence, Italy). The total EEG power (0.25-16 Hz range) was divided into 5 variable frequency bands: δ 0.25-3 Hz, θ 3-6; α1 6-9; α2 9-12 and β12-16 Hz.
The EEG patterns and behavioral effects observed in the rat after administration of the choline derivatives and of the vehicle is reported in 5 Tab. 3. Such effects can be ascribed to the changes of EEG spectrum total power. An […] in EEG total power is related with the presence of slow frequency waves (synchronisation), whereas an […] thereof is related with the presence of rapid frequency waves (desynchronisation).

[3] = target: T1, Choline Specific Transport System (HUCT) (Rattus norvegicus, UniProt Q9JMD7); assay: EEG after ICV Hemicholinium-3 (choline uptake blocker) pretreatment; assay type: in vivo; conditions: rats, ICV 1 μg-0.1 ng
T1 construct: from tissue; host or cells: brain of living Wistar rats (in vivo, ICV microinfusion, EEG read-out)
T1 sequence (Q9JMD7 1-580): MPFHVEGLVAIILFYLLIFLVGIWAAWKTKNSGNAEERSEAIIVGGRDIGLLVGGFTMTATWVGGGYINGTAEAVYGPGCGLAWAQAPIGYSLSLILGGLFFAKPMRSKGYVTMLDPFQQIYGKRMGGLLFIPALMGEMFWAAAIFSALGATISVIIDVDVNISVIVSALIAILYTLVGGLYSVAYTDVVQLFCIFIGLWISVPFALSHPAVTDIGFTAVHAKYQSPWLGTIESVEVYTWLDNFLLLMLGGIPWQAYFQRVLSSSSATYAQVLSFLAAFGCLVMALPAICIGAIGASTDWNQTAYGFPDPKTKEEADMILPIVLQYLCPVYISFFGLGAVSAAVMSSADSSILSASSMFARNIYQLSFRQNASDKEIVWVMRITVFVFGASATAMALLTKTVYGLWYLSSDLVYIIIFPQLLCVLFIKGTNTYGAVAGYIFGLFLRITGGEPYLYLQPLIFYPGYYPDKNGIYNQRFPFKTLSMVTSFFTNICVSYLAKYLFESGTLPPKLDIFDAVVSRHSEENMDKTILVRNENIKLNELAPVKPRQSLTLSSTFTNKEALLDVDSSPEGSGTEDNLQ
Experimental: FIG. 4B—Effect on EEG spectrum power after treatment with PC-1 (5 mg i.p.) administered 15 min after microinfusion of Hch3 (0.1 ng/0.5 μl) in the III ventricule. As in FIG. 4a, time (min) is reported in abscissa, the EEG spectrum power expressed as μV^2/s is reported in ordinate. Graphics report the EEG spectrum total power (0.25-16 Hz).

rats = assay: Synergistic effect with tacrine: qEEG of neocortical activity in rats; assay type: in vivo, rat; conditions: n=7; for EEG power (qEEG of neocortical activity), 15″ / EEG power (qEEG of neocortical activity), 30″ / EEG power (qEEG of neocortical activity), 45″ / EEG power (qEEG of neocortical activity), 60″ / EEG power (qEEG of neocortical activity), 75″ / EEG power (qEEG of neocortical activity), 90″ / EEG power (qEEG of neocortical activity), 105″ / EEG power (qEEG of neocortical activity), 120″ / EEG power (qEEG of neocortical activity), 135″: rats i.p., PC-1/PC-2 15 μmol/2 ml/kg, THA 5 mg/kg 30 min before, atropine 0.1 mg/kg 15 min before; for EEG power (qEEG of neocortical activity), Baseline: before i.p. treatment
Experimental: Results reported in Table 5 show the synergistic effect of the combination of tacrine with the choline derivatives of the present invention.
Vehicle: 2 ml/Kg; all drugs were administered i.p., PC-1 and PC-2 at corresponding equimolar doses (15 μmol/2 ml/kg^−1); THA (tacrine) (5 mg/kg) was administered 30 min before compounds; atropine (0.1 mg/kg) was injected 15 min before PC-1 and PC-2. The number of animals was 7 per each group. Values represent EEG power (μV/s).

Molecule	Time to onset of EEG desynchronization and significant decrease in EEG total power (Wistar rats [1]; 5 mg i.p.) [min]	EEG frequency band 0.25-3 Hz (Wistar rats [1])	EEG frequency band 3-6 Hz (Wistar rats [1])	EEG frequency band 6-9 Hz (Wistar rats [1]) [%]	EEG frequency band 9-12 Hz (Wistar rats [1]) [%]	EEG frequency band 12-16 Hz (Wistar rats [1])	Effect of atropine given 15 min before the compound (Wistar rats [1])	EEG total power (fronto-parietal cortex), Baseline (Wistar rats [1])	EEG total power (fronto-parietal cortex), 15′ (Wistar rats [1])	EEG total power (fronto-parietal cortex), 30′ (Wistar rats [1])	EEG total power (fronto-parietal cortex), 45′ (Wistar rats [1])	EEG total power (fronto-parietal cortex), 60′ (Wistar rats [1])	EEG total power (fronto-parietal cortex), 75′ (Wistar rats [1])	EEG total power (fronto-parietal cortex), 90′ (Wistar rats [1])	Behaviour (Wistar rats [2]; 5 mg)	EEG Activity (change of EEG total power) (Wistar rats [2]; 5 mg)	Behaviour (Wistar rats [2]; 50 mg)	EEG Activity (change of EEG total power) (Wistar rats [2]; 50 mg)	EEG power (qEEG of neocortical activity), 15″ (rats) [μV/s]	EEG power (qEEG of neocortical activity), 30″ (rats) [μV/s]	further results
C[N+](C)(C)CCOP(=O)(O)OP(=O)([O-])OC[C@H]1O[C@@H](n2ccc(N)nc2=O)[C@H](O)[C@@H]1O [CDP-choline, cytidine-5′-diphosphocholine, reference compound]	60	3.8 ± 1.3(*) %	19.2 ± 1.5(*) %	31.5 ± 0.9	18.5 ± 1.7	20.5 ± 1.3%	antagonize the effects	98 ± 3.6	93 ± 2.9	271 ± 3.2	89 ± 2.9	65 ± 2(*)	95 ± 3.3	103 ± 2.6	Alert response	Decrease	Sedation	No effects	–	–	Behaviour (Wistar rats [2]; 1 mg): No effects; EEG Activity (change of EEG total power) (Wistar rats [2]; 1 mg): No effects; Behaviour (Wistar rats [2]; 25 mg): Sedation; EEG Activity (change of EEG total power) (Wistar rats [2]; 25 mg): Increase
C[N+]1(C)CCOC(O)(c2ccc(-c3ccc(C4(O)C[N+](C)(C)CCO4)cc3)cc2)C1.[Br-].[Br-] (centres unmarked) [Hch3, Hemicholinium-3, reference compound]	–	–	–	–	–	–	–	–	–	–	–	–	–	–	–	–	–	–	–	–	Behavioural and EEG effect of ICV administration [3]: behavioural sedation and sleep, EEG synchronization and increase in EEG total power
Nc1c2c(nc3ccccc13)CCCC2 [THA, tacrine, reference compound]	–	–	–	–	–	–	–	–	–	–	–	–	–	–	–	–	–	–	72.5	68	EEG power (qEEG of neocortical activity), 45″ (rats): 75.5 μV/s; EEG power (qEEG of neocortical activity), 60″ (rats): 97.5 μV/s; EEG power (qEEG of neocortical activity), 75″ (rats): 122 μV/s; EEG power (qEEG of neocortical activity), 90″ (rats): 129.5 μV/s; EEG power (qEEG of neocortical activity), 105″ (rats): 135 μV/s; EEG power (qEEG of neocortical activity), 120″ (rats): 137 μV/s; EEG power (qEEG of neocortical activity), 135″ (rats): 119.5 μV/s; EEG power (qEEG of neocortical activity), Baseline (rats; rats): 118 μV/s
pivaloylcholine trimethylacetate [PC-2]	≤ 15	2.4 ± 1.3(**) %	21.3 ± 0.9%	22.3 ± 1.3	13.5 ± 0.7	22.5 ± 1.6(*) %	antagonize the effects	93 ± 3.5	50 ± 1.9(**)	55 ± 2.5(*)	90 ± 3.3	132 ± 1.5(*)	96 ± 2.7	90 ± 3.6	Alert response	Decrease	Convulsions and death (50%)	Peaks	58.5	64.5	Change of slow EEG spectrum components (FIG. 3) (Wistar rats [1]): decrease in slow components (delta and theta) of the spectrum; Duration of the decrease in EEG total power (Wistar rats [1]; 5 mg i.p.): about 30 min; EEG 60 min after administration (Wistar rats [1]; 5 mg i.p., 60 min): rapid frequency activity (about 16 Hz) and significant increase (P<0.01) in EcoG total power; EEG power (qEEG of neocortical activity), 45″ (rats): 98 μV/s; EEG power (qEEG of neocortical activity), 60″ (rats): 103 μV/s; EEG power (qEEG of neocortical activity), 75″ (rats): 97.5 μV/s; EEG power (qEEG of neocortical activity), 90″ (rats): 110.3 μV/s; EEG power (qEEG of neocortical activity), 105″ (rats): 124 μV/s; EEG power (qEEG of neocortical activity), 120″ (rats): 120.5 μV/s; EEG power (qEEG of neocortical activity), 135″ (rats): 117.5 μV/s; EEG effect with tacrine given 30 min before (rats; rats, THA 5 mg/Kg i.p. 30 min before 15 μmol i.p.): long-lasting EEG desynchronization and significant decrease in EEG spectrum total power; EEG power (qEEG of neocortical activity), Baseline (rats; rats): 105 μV/s
